Some test systems named below: CAKI-1 renal; COLO 205 colon; DU-145 prostate; HCC-2998 colon; HCT-116 colon; HOP-92 NSCLC; HT29 colon; KM12 colon; MALME-3M melanoma; MDA-MB-435; NCI-H23 lung; OVCAR-4 ovarian; OVCAR-5 ovarian; OVCAR-8 ovarian; SF-295 CNS; SN12C renal; SR leukemia; T-47D breast.
What all share (assay): NCI tumour cell line growth inhibition, 48 h

From PubChem BioAssay (NCI) come the findings set out here.

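How tested: cells in 96-well plates exposed to compound for 48 hours at five concentrations. The concentration for full growth arrest is given as TGI.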

`COc1cccc2c(Nc3ccc(S(=O)(=O)NC(C)=O)cc3)c3ccc([N+](=O)[O-])cc3nc12`: the TGI with CAKI-1 renal is over 100 µM; with COLO 205 colon it was over 95.7 µM; with DU-145 prostate, over 100 µM; in the test on HCC-2998 colon it was over 100 µM; in the test on HCT-116 colon, over 100 µM; in the test on HOP-92 NSCLC it was over 100 µM. In addition, the TGI in the test on HT29 colon was 28.5 µM; in the test on KM12 colon, over 35.3 µM; with MALME-3M melanoma, over 87 µM; in the test on MDA-MB-435, over 65.2 µM; in the test with NCI-H23 lung it was over 100 µM; in the test with OVCAR-4 ovarian it was over 100 µM. For the same compound, the TGI in the test on OVCAR-5 ovarian is over 100 µM; in the test with OVCAR-8 ovarian it was over 100 µM; in the test with SF-295 CNS, over 100 µM; in the test on SN12C renal, over 100 µM; with SR leukemia, 34.3 µM; with T-47D breast, over 100 µM.

As to `CCOC(=O)C(NC(=O)CC(C)C)(Nc1ccc(S(=O)(=O)Nc2nc(C)cc(C)n2)cc1)C(F)(F)F` (stereo not drawn), the TGI in the test on CAKI-1 renal is over 100 µM; in the test on COLO 205 colon, over 100 µM; in the test with DU-145 prostate it was over 100 µM; in the test with HCC-2998 colon, 99.2 µM; in the test with HCT-116 colon it was over 100 µM; in the test on HOP-92 NSCLC it was over 100 µM. Further, the TGI with HT29 colon, in the test with KM12 colon, in the test on MALME-3M melanoma, in the test with MDA-MB-435, with NCI-H23 lung and in the test on OVCAR-4 ovarian was over 100 µM throughout. Moreover, the TGI in the test on OVCAR-5 ovarian, in the test on OVCAR-8 ovarian, in the test with SF-295 CNS, in the test with SN12C renal, in the test with SR leukemia and in the test on T-47D breast was over 100 µM each time.

On to `O=c1[nH]nc(Cc2ccccc2)n1/N=C/c1ccccc1Cl`, for which the TGI in the test on CAKI-1 renal, in the test on COLO 205 colon, in the test with DU-145 prostate, in the test on HCC-2998 colon, with HCT-116 colon and with HOP-92 NSCLC was over 100 µM throughout. For the same compound, the TGI in the test with HT29 colon, in the test on KM12 colon, with MALME-3M melanoma, in the test on MDA-MB-435, in the test on NCI-H23 lung and in the test with OVCAR-4 ovarian was over 100 µM throughout. Also, the TGI with OVCAR-5 ovarian, in the test on OVCAR-8 ovarian, with SF-295 CNS, with SN12C renal, with SR leukemia and in the test on T-47D breast was over 100 µM throughout.

Consider `CCOC(=O)/C(C#N)=C1\c2c([nH]c(=S)[nH]c2=O)Oc2ccc3ccccc3c21`, for which the TGI in the test with CAKI-1 renal, with COLO 205 colon, with DU-145 prostate, in the test on HCC-2998 colon, in the test on HCT-116 colon and in the test on HOP-92 NSCLC was over 100 µM throughout. The TGI with HT29 colon, in the test with KM12 colon, with MALME-3M melanoma, in the test with MDA-MB-435, in the test with NCI-H23 lung and with OVCAR-4 ovarian was over 100 µM in each case. The TGI in the test with OVCAR-5 ovarian, with OVCAR-8 ovarian, in the test on SF-295 CNS, with SN12C renal, with SR leukemia and in the test on T-47D breast was over 100 µM in each case.

For the compound `CCN(CC)C(=S)SNCc1ccc(S(N)(=O)=O)cc1`, the TGI was 31.3 µM with CAKI-1 renal; 27.7 µM in the test on COLO 205 colon; 33.4 µM in the test with DU-145 prostate; over 100 µM with HCC-2998 colon; 27.4 µM in the test on HCT-116 colon; 45.7 µM in the test on HOP-92 NSCLC. The TGI in the test on HT29 colon is 21 µM; in the test on KM12 colon, 29.2 µM; with MALME-3M melanoma, 30.9 µM; in the test with MDA-MB-435, over 50.9 µM; in the test with NCI-H23 lung, 44.3 µM; with OVCAR-4 ovarian it was 48.1 µM. Further, the TGI is 29.9 µM in the test on OVCAR-5 ovarian; 28.4 µM in the test on OVCAR-8 ovarian; 34.9 µM with SF-295 CNS; 28.9 µM in the test with SN12C renal; over 64.6 µM with SR leukemia; 47.7 µM with T-47D breast.

On to `Fc1ccccc1-c1nn2c(C34CC5CC(CC(C5)C3)C4)nnc2s1`, for which the TGI in the test with CAKI-1 renal, in the test with COLO 205 colon, in the test on DU-145 prostate, with HCC-2998 colon, in the test with HCT-116 colon and in the test with HOP-92 NSCLC was over 100 µM in each case. For the same compound, the TGI in the test with HT29 colon, in the test with MALME-3M melanoma, in the test on MDA-MB-435, with NCI-H23 lung, in the test with OVCAR-4 ovarian and in the test on OVCAR-5 ovarian was over 100 µM throughout. In addition, the TGI in the test on OVCAR-8 ovarian, with SF-295 CNS, with SN12C renal, with SR leukemia and in the test on T-47D breast was over 100 µM in each case.

Regarding `Cc1ccc(S(=O)(=O)NC2C(=O)c3ccccc3C(=O)C2n2cnc3ccccc32)cc1` (stereo not drawn), the TGI was over 100 µM in the test on CAKI-1 renal; over 100 µM in the test with COLO 205 colon; over 100 µM in the test with DU-145 prostate; 34.7 µM with HCC-2998 colon; over 100 µM in the test with HCT-116 colon; over 100 µM in the test with HOP-92 NSCLC. The TGI in the test on HT29 colon was over 100 µM; in the test on KM12 colon, over 100 µM; with MALME-3M melanoma it was 1.81 µM; with MDA-MB-435, 36.4 µM; in the test on NCI-H23 lung, 58.6 µM; in the test on OVCAR-4 ovarian, 26.1 µM. Further, the TGI in the test on OVCAR-5 ovarian, with OVCAR-8 ovarian, with SF-295 CNS, in the test on SN12C renal, in the test on SR leukemia and with T-47D breast was over 100 µM throughout.

Consider `CCOP(=O)(OCC)c1ccc(=O)[nH]c1-c1cccs1`, for which the TGI in the test on CAKI-1 renal, in the test with COLO 205 colon, in the test on DU-145 prostate, in the test with HCC-2998 colon, in the test on HCT-116 colon and in the test with HOP-92 NSCLC was over 100 µM each time. For the same compound, the TGI in the test with HT29 colon, in the test with KM12 colon, in the test on MALME-3M melanoma, in the test with MDA-MB-435, with NCI-H23 lung and with OVCAR-4 ovarian was over 100 µM throughout. The TGI in the test with OVCAR-5 ovarian, in the test with OVCAR-8 ovarian, with SF-295 CNS, with SN12C renal, in the test with SR leukemia and in the test with T-47D breast was over 100 µM in each case.
